Reference: patent US20250296938A1, “Compounds that Interact with the Ras Superfamily for the Treatment of Cancers, Inflammatory Diseases, Rasopathies, and Fibrotic Disease” (SHY Therapeutics, LLC, priority 2018, published 2025)
Read-outs that look alike come from different tables or passages of the source.

Key:
Experiment in all cases: Ras GTP binding domain inhibition assay (Cy3-GTP/Cy5-GTP competition)
[1] = target: T1, KRas G12D mutant (Homo sapiens, UniProt P01116, G12D); settings: at 20 μM
T1 construct: fused on or other part: His tag, used for capture on nickel-coated plates
How it was run: (§1)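 Compounds tested at 20 μM or in serial dilution for IC50 against nickel-captured His-tagged GTPase, 3 hours at room temperature, with or without His-Sos GEF added for last hour. Fluorescent GTP then added at 100 nM for 45 minutes; wells washed, bound label measured by fluorescence.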

[2] = target: Rac-1 (Homo sapiens, UniProt P63000)
How it was run: as §1

[3] = target: Rho-A (Homo sapiens, UniProt P61586)
How it was run: as §1

[4] = with SOS, read-out: KRas G12D mutant + SOS: % inh.
[5] = without SOS, read-out: KRas G12D mutant: % inh.
[6] = with SOS, read-out: Rac-1 + SOS: % inh.
[7] = without SOS, read-out: Rac-1: % inh.
[8] = with SOS, read-out: Rho-A + SOS: % inh.
[9] = without SOS, read-out: Rho-A: % inh.

| Structure (SMILES) | inhibition at 20 µM [1, 4] | inhibition at 20 µM [1, 5] | inhibition at 20 µM [2, 6] | inhibition at 20 µM [2, 7] | inhibition at 20 µM [3, 8] | inhibition at 20 µM [3, 9] |
| --- | --- | --- | --- | --- | --- | --- |
| CN(Cc1ccccc1)C(=O)c1nc(-c2ccccn2)nc(O)c1O [drawing 934] | 26 to 50% | 26 to 50% | 26 to 50% | 51 to 75% | 51 to 75% | 51 to 75% |
| O=C(c1nc(-c2ccccn2)nc(O)c1O)N1CCOCC1 [drawing 935] | 26 to 50% | 26 to 50% | 26 to 50% | 51 to 75% | 26 to 50% | 26 to 50% |
| COc1cccc(Oc2nc(-c3ccccn3)nc(O)c2OC)c1 [drawing 936] | 51 to 75% | 76 to 100% | 76 to 100% | 76 to 100% | 51 to 75% | 51 to 75% |
| COc1c(O)nc(-c2ccccn2)nc1Oc1cccnc1 [drawing 937] | 51 to 75% | 51 to 75% | 76 to 100% | 76 to 100% | 76 to 100% | 76 to 100% |
| COc1c(O)nc(-c2ccccn2)nc1Oc1cnn(C)c1 [drawing 938] | 51 to 75% | 51 to 75% | 76 to 100% | 76 to 100% | 51 to 75% | 51 to 75% |
| COc1c(O)nc(-c2ccccn2)nc1Oc1ccc2ncccc2c1 [drawing 939] | 26 to 50% | 51 to 75% | 51 to 75% | 51 to 75% | 76 to 100% | 76 to 100% |
| COCC1CN(c2nc(-c3nccn3C)nc3sc(-c4cccc(OC)c4F)c(-c4ccc(OC)cc4)c23)C1 [drawing 940] | 51 to 75% | 51 to 75% | 0% | 0% | 51 to 75% | 51 to 75% |

Now from value to compound:

| inhibition at 20 µM [1, 4] | inhibition at 20 µM [1, 5] | inhibition at 20 µM [2, 6] | inhibition at 20 µM [2, 7] | inhibition at 20 µM [3, 8] | inhibition at 20 µM [3, 9] | Structure (SMILES) |
| --- | --- | --- | --- | --- | --- | --- |
| 51 to 75% | 51 to 75% | 0% | 0% | 51 to 75% | 51 to 75% | COc1ccc(-c2c(-c3cccc(OC)c3F)sc3nc(-c4nccn4C)nc(N4CCC(OC)C4)c23)cc1 (stereo not drawn) [drawing 941] |
| 26 to 50% | 76 to 100% | 51 to 75% | 51 to 75% | 76 to 100% | 76 to 100% | Cc1cn(C)c(-c2nc(O)c3scc(-c4ccccn4)c3n2)n1 [drawing 942] |
| 1 to 25% | 51 to 75% | 51 to 75% | 1 to 25% | 51 to 75% | 51 to 75% | Cc1cnc(-c2nc(O)c3scc(-c4ccccn4)c3n2)n1C [drawing 943] |
| 26 to 50% | 51 to 75% | 76 to 100% | 76 to 100% | 76 to 100% | 51 to 75% | O=C(NC1CCC1)c1nc(-c2ccccn2)nc(O)c1O [drawing 944] |
| 1 to 25% | 1 to 25% | 51 to 75% | 51 to 75% | 26 to 50% | 26 to 50% | COCCN(C)C(=O)c1nc(-c2ccccn2)nc(O)c1O [drawing 945] |
| 1 to 25% | 51 to 75% | 76 to 100% | 51 to 75% | 51 to 75% | 51 to 75% | CC(C)CNC(=O)c1nc(-c2ccccn2)nc(O)c1O [drawing 946] |
| 1 to 25% | 51 to 75% | 51 to 75% | 51 to 75% | 51 to 75% | 51 to 75% | O=C(NC1CCCC1)c1nc(-c2ccccn2)nc(O)c1O [drawing 947] |
| 26 to 50% | 26 to 50% | 76 to 100% | 76 to 100% | 76 to 100% | 51 to 75% | COc1c(O)nc(-c2ccccn2)nc1Oc1ccccc1 [drawing 948] |
